“Also recorded” adds a separate entry of the source.

The test system of one experiment is kidney. Briefly: Renal histology (CD31 and α-SMA staining, PAS staining, tubular injury score). The experiment is classed as in vivo, mouse. As to conditions: for PECAM (CD-31) staining: renal sections (FIGS. 4A-4E); for α-SMA staining: renal sections (FIGS. 4F-4J). On the procedure:
(§1) Experimental Design for IGF-1 and BTP-2 studies—The animal experiments involved B6 mice between 5-8 weeks of age. Most experiments involved five groups of animals: (1) healthy, (2) LPS untreated (LPS-No Tx), (3) IGF-I in vivo gene therapy one day before LPS injection (LPS+IGF-1), (4) BTP-2 16 mg/kg i.p. at the start of the study and the (5) combined therapy with IGF-I and BTP-2 (LPS-IGF-1+BTP-2). For the survival experiment, a lethal dose of LPS (25 mg/kg) was used and all of the untreated animals died by 72 hours. In the other experiments, a sublethal dose of LPS (20 mg/kg) was used.
(§2) LPS induced sepsis and subsequent AKI—Female C57BL/6 mice received a sublethal or lethal dose of LPS from E. coli (0127: B8 strain, Sigma Aldrich, St. Louis, MO, USA) in a concentration of 20 or 25 mg/kg body weight administrated in sterile PBS by intraperitoneal injection.
(§3) Treatment—In a preventive therapeutic strategy, some of the mice received an intramuscular injection of Lenti-IGF-1 24 hours before LPS injection; whereas, the calcium signaling blocker BTP-2 (16 mg/kg, Cayman Chemical) was administrated 1 hour before LPS injection. Some of the animals received a combination of Lenti-IGF-1 and BTP-2. Control group mice were injected with an equal volume of PBS.
Renal Histology—After sacrificing the mice, one part of the kidney was immediately cut, fixed in a 10% neutral buffered formalin solution, embedded in paraffin, and used for histopathological examination. 10-micrometer-thick sections were cut, deparaffinized, and hydrated. All renal serial sections were incubated at 4° C. overnight with one of two antibodies; rabbit polyclonal antibody against PECAM (CD31) (Santa Cruz, MA) or rabbit polyclonal antibody against α-SMA (Abcam, MA). After washing with TBST, biotinylated goat anti-rabbit IgG (1:200, Vector Labs, Burlingame, CA) were applied to the sections for 30 min at room temperature. Sections then were incubated with Streptavidin-HRP (Vector Labs, Burlingame, CA) for 30 min at room temperature. Diaminobenzidine (DAB; Vector Labs, Burlingame, CA) was used as the chromogen and hematoxylin as the counterstain. One part of the kidney was stained with periodic acid Schiff (PAS) stain. The PAS stained sections were examined for renal morphology in an automated fashion by quantification of a glycogen specific color in the kidney tissue using ImageJ (National Institutes of Health, Bethesda, MD, USA). A minimum of 10 fields for each kidney slide were examined and scored for pathological injury. […] The average histological score for each sample was calculated. The images were captured with an Olympus BX51 microscope, 40× magnification. (Olympus, Center Valley, PA).

For a further experiment, the system named is whole kidney tissue. In words: Measurements of mRNA expression in the kidney (real-time PCR), LPS-induced AKI. Format: in vivo, mouse. As to conditions: for Orai1 gene expression: 7 days after LPS 20 mg/kg (FIG. 2E); for NGAL gene expression: 7 days after LPS (FIG. 6C); for proinflammatory cytokines gene expression (IL-1b, IL-17, IL-6, TNF-α, IL-18): 7 days after LPS (FIGS. 3A-3E). On the procedure: as §1, §2, §3
Measurements of mRNA Expression in the Kidney—For the measurement of the mRNA expressions of whole kidney tissue, we performed real-time PCR. The relative amount of mRNA was calculated using the comparative Ct(ΔΔCt) method. All specific amplicons were normalized against GAPDH.

For the next experiment, the system named is kidneys. Briefly: Vascular leakage permeability assay (Evans blue dye), kidney. Format: in vivo, mouse. As to conditions: day 1 (FIG. 5A). On the procedure:
as §1
LPS induced sepsis and subsequent AKI—Female C57BL/6 mice received a sublethal or lethal dose of LPS from E. coli (0127: B8 strain, Sigma Aldrich, St. Louis, MO, USA) in a concentration of 20 or 25 mg/kg body weight administrated in sterile PBS by intraperitoneal injection. […]
Vascular leakage permeability assay—Evans blue dye (EBD) was dissolved in a 0.9% saline solution at a concentration of 5 mg/mL and injected to the mouse tail vein (50 mg/kg, i.v.). […] The absorbance of the supernatants was measured at 620 and 740 nm using a dual-wave ELISA plate reader.

The test system of a further experiment is lung. Briefly: Lung immunocytochemistry (CD31, α-SMA). Format: in vivo, mouse. The settings on record: lung sections (FIG. 14A). On the procedure: Acute Lung Injury Induced by LPS—Female C57BL/6 mice received a sublethal or lethal dose of LPS from Escherichia coli (0127: B8 strain, Sigma Aldrich, St. Louis, MO, USA). LPS in sterile PBS was administered intraperitoneally at 20- or 25-mg/kg body weight.
Treatment for Lung Studies-Lenti-IGF-I was administered intramuscularly 24 h before LPS injection. The TRP and ORAI calcium channel blocker BTP-2 (YM-58483 16 mg/kg, Cayman Chemical, Ann Arbor, MI, USA) was given IP 1 h before LPS injection. Some of the animals received a combination of lenti-IGF-I and BTP-2. Mice in control groups were injected with an equal volume of PBS.
Lung Immunocytochemistry—After the mice were sacrificed, one part of the lung was immediately cut, fixed in a 10% neutral-buffered formalin solution, embedded in paraffin, and used for histopathological examination. Ten-micrometer-thick sections were cut, deparaffinized, and hydrated. All lung serial sections were incubated at 4° C. overnight with one of two antibodies: rabbit polyclonal antibody against PECAM (CD31) (Santa Cruz Biotechnology, Dallas, TX, USA) or rabbit polyclonal antibody against α-SMA (Abcam, Cambridge, MA, USA). After washing, biotinylated goat anti-rabbit IgG (1:200, Vector Labs, Burlingame, CA, USA) were applied to the sections for 30 min at room temperature. […]

The nature of experiment [1]: Serum IGF-I in LPS-treated mice after IGF-I in vivo gene therapy. Set-up: species or system mouse. The settings on record: LPS 20 mg/kg i.p., 7-day study, IGF-I gene therapy i.m. one day prior to LPS. On the procedure:
AKI inflammation was associated with a decrease in serum IGF-I. This deficiency was rescued by expression of IGF-1. An in vivo gene therapy approach was utilized. A lentiviral vector engineered to express IGF-I was injected into skeletal muscle of the mice. Constant IGF-I production was designed because IGF binding protein 3, which normally binds to and stabilizes IGF-1 in serum, is expected to decrease. This decrease is due to liver growth receptor depression and therefore the free IGF-I, being a small molecule, is excreted in the urine. By using in vivo gene therapy approach, the free IGF-I is available to the sites of injury in the kidney.
In this 7-day study, there was a marked drop in serum IGF-I from 337.5 to 85 ng/mL (p<0.001), as a consequence of LPS therapy (20 mg/kg body weight). […] Under normal conditions, IGF-I circulates bound to IGFBP3. However, under the conditions of LPS administration, IGFBP3 would be expected to be low. Consequently, IGF-1 produced by muscle should circulate as free IGF-I, which would be readily accessible through the remaining intact vasculature to the injured kidney.
Experimental Design for IGF-1 and BTP-2 studies—The animal experiments involved B6 mice between 5-8 weeks of age. […]

Turning to `Cc1nnsc1C(=O)Nc1ccc(-n2nc(C(F)(F)F)cc2C(F)(F)F)cc1` [BTP-2, 3,5-bis(trifluoromethyl)pyrazole derivative], in the experiment on kidney, the “PECAM (CD-31) staining” value is given as “improved” and the α-SMA staining entry was “improved”. Besides, in the experiment on whole kidney tissue, the Orai1 gene expression result is listed as “decreased Orai1 expression to normal; also recorded: marked decrease”; the NGAL gene expression entry is “improved”; the “proinflammatory cytokines gene expression (IL-1b, IL-17, IL-6, TNF-α, IL-18)” value was “decreased”. In the experiment with whole kidney tissue (7 days after LPS (FIG. 2C)), the Nf-kB gene expression result is “decreased”. In the experiment on whole kidney tissue (7 days after LPS (FIG. 5C)), the CD31 gene expression result was “increased”. Further, the “vascular leakage (extravasation of Evans blue dye)” value in the experiment with kidneys is reported as “more so”. For the same compound, the “immunocytochemical evaluation of CD31 (% of the area of CD31 staining)” value in the experiment with lung is recorded as “significantly improved”.

Consider “IGF-I: Insulin-like Growth Factor, delivered by a lentiviral vector engineered to express IGF-I injected into skeletal muscle”, for which, in the experiment on kidney, the “PECAM (CD-31) staining” value is “improved” and the α-SMA staining result was “improved”. In experiment [1], the “serum IGF-I” value was “normalized the low serum IGF-I; also recorded: rescued this deficiency”. Further, the “serum IGF-I” value in experiment [1] (listed as Lenti-IGF-I) is “rescued the serum IGF-I deficiency”. In the experiment with whole kidney tissue, the Orai1 gene expression result was “decreased Orai1 expression”; the NGAL gene expression entry is reported as “improved”; the “proinflammatory cytokines gene expression (IL-1b, IL-17, IL-6, TNF-α, IL-18)” value was “decreased”. Moreover, the “vascular leakage (extravasation of Evans blue dye)” value with kidneys is recorded as “improved”. Besides, in the experiment with lung, the “immunocytochemical evaluation of CD31 (% of the area of CD31 staining)” value is listed as “significantly improved”.

These data come from US12714721B2, “Methods of treatment of a cytokine storm” (Loma Linda University Health, priority 2020, dated 2026).
